Experimental data from article PMC3027353 (Journal of nuclear medicine : official publication, Society …, 2010).
Where two headings read alike, the source gives them in different places.

Legend:
[1] = biological target: T1, TSPO (Rattus norvegicus, UniProt P16257); details: cited from earlier work
[2] = biological target: T1, TSPO; assay: Radioligand displacement of [^3H]PK 11195 by PBR06 in C6 glioma cell lysate; assay type: binding; details: C6 glioma cell line homogenates/lysate; non-linear regression; triplicate
[3] = biological target: T1, TSPO; assay type: in vivo; details: for K1/k2: 3-compartment, 4-rate constant model; for VT (total distribution volume): from graphical analysis, N = 4
[4] = biological target: T1, TSPO; details: in vivo
[5] = HPLC radiometabolite analysis of arterial plasma after [^18F]PBR06 injection; assay type: in vivo, rat

T1 sequence (P16257 whole entry): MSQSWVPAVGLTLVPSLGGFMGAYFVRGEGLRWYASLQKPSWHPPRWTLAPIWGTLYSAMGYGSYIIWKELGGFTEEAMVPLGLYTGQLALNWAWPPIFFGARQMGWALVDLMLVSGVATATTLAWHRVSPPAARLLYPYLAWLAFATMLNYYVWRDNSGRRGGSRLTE

SMILES: CN1C(=O)CN=C(c2ccc(Cl)cc2)c2cc(Cl)ccc21 [Ro5-4864]
- In vitro affinity for TSPO [1]: low nanomolar range

SMILES: CCC(C)N(C)C(=O)c1cc2ccccc2c(-c2ccccc2Cl)n1 (centres unmarked) [PK 11195]
- In vitro affinity for TSPO [1]: low nanomolar range

SMILES: COc1ccc(OC)c(CN(C(=O)CF)c2ccccc2Oc2ccccc2)c1 [PBR06, N-fluoroacetyl-N-(2,5-dimethoxybenzyl)-2-phenoxyaniline]
- IC50, displacement of [^3H]PK 11195 [2]: in the nanomolar range

SMILES: COc1ccc(OC)c(CN(C(=O)C[18F])c2ccccc2Oc2ccccc2)c1 [[^18F]PBR06, ^18F-N-fluoroacetyl-N-(2,5-dimethoxybenzyl)-2-phenoxyaniline]
- K1/k2 ([3]; Brain, mean ± S.E., N = 3): 6.164 ± 2.049 mL/g
- VT (total distribution volume) ([3]; Brain, mean ± S.E.): 13.07 ± 3.901 mL/g
- k3 ([3]; Brain, mean ± S.E., N = 3): 0.0714 ± 0.0261 min⁻¹
- k4 ([3]; Brain, mean ± S.E., N = 3): 0.00945 ± 0.005532 min⁻¹
- K1/k2 ([3]; Tumor, mean ± S.E., N = 3): 5.947 ± 1.982 mL/g
- VT (total distribution volume) ([3]; Tumor, mean ± S.E.): 63.90 ± 3.400 mL/g
- k3 ([3]; Tumor, mean ± S.E., N = 3): 0.3870 ± 0.1592 min⁻¹
- Plasma clearance ([3]; after initial spike following tracer injection): rapidly cleared from plasma
- Total radioactivity in tumor tissue relative to normal brain ([3]; last 20 minutes of the 90 min PET scan, C6 glioma-bearing rats): three- to four-fold higher
- Displaceable binding of [^18F]PBR06 in tumor [4]: approximately 75%
- Tumor activity after PBR06 injection, as % of peak tumor uptake [4]: approximately 25%
- Fraction of plasma radioactivity ([5]; at 45 min after [^18F]PBR06, 15 min after cold PBR06 infusion): 57%
- Fraction of plasma radioactivity ([5]; printed 'at 2.8 min' (2 min sample after [^18F]PBR06 injection)): 75%
- Fraction of plasma radioactivity ([5]; printed 'at 30 min' (25 min sample after [^18F]PBR06 injection)): 38%
